# Test results as given in US20120264685A1 (priority 2009, published 2012).
# Where a SMILES comes first, the peptide text is derived from it. [ ]: non-standard residue; d: D form. ξ: configuration not given here. ξαMeBip(2'-Et,4'-OMe) = CCc1cc(OC)ccc1-c1ccc(CC(C)(N)C(=O)O)cc1; ξBip(2'-Et-4'-OMe) = CCc1cc(OC)ccc1-c1ccc(CC(N)C(=O)O)cc1; ξαMePhe(2,6-F2) = CC(N)(Cc1c(F)cccc1F)C(=O)O; ξαMe(hhPhe) = CC(N)(CCCc1ccccc1)C(=O)O; ξαMePhe(2-F) = CC(N)(Cc1ccccc1F)C(=O)O; ξhhPhe = NC(CCCc1ccccc1)C(=O)O; ξαMeD = CC(N)(CC(=O)O)C(=O)O; ξαMeP = CC1(C(=O)O)CCCN1; ξαMeS = CC(N)(CO)C(=O)O; Aib = CC(C)(N)C(=O)O
# How the values were obtained:
# [1] = system: RIN5F (Rat Insulinoma) cells; assay: In vitro glucose-dependent insulin secretion (RIN5F cell assay); assay type: cell-based; settings: 16.7-mM glucose load, n = 3, mean ± S.D.
# How it was run: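 Rat RIN5F cells were preincubated 40 min in Krebs-Ringer buffer with 1.1 mM glucose and 0.5% BSA, pH 7.4, then exposed to test peptidomimetics for 30 min at 37 °C with 16.7 mM or 0 mM glucose. Supernatant insulin was measured by rat insulin ELISA and normalised to total protein (BCA), as pg/μg.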
# [2] = molecular target: DPP IV enzyme (Homo sapiens, UniProt P27487); assay: Stability against DPP IV enzyme; assay type: in vitro ADME; settings: 2 μM, 37° C.; for half-life: read-out: half-life (t1/2) with DPP-IV enzyme
# Method: (§1) Different peptidomimetics (final concentration 2 μM) were incubated with either DPP IV (1:25 mU) or pooled human plasma (7.5 μL) or simulated gastric fluid (pH 1.5; composition HCl, NaCl and Pepsin) or simulated intestinal fluid (pH 7.5) or human liver microsomes, for 0, 2, 4, 6, 12 and 24 h (37° C.; 50 mM triethanolamine-HCl buffer; pH 7.8). […] Reactions were terminated by the addition of TFA/H2O ([…], 10% (v/v)). The reaction products were then applied to a Vydac C18 analytical column (4.6×250-mm) and the major degradation fragment separated from intact peptidomimetic. The column was equilibrated with TFA/H20, at a flow rate of 1 mL/min. Using 0.1% (v/v) TFA in 70% acetonitrile/H2O, the concentration of acetonitrile in the eluting solvent was raised from 0% to 28% over 10 min and from 28% to 42% over 30 min. The absorbance was monitored at 206 nm using UV detector and peaks were collected manually prior to ESI-MS analysis. Area under the curve was measured for test peptidomimetics and their metabolites and percentage degradation were calculated at each time point over a period of 24 h.
# [3] = Stability in human plasma; assay type: in vitro ADME; settings: 2 μM, 37° C.; for half-life: human, plasma, read-out: half-life (t1/2) in human plasma
# Method: as §1
# [4] = Stability in simulated gastric fluid; assay type: in vitro ADME; settings: 2 μM, 37° C.; for half-life (t1/2) in simulated gastric fluid / half-life: pH 1.5; for % degradation in 24 h when incubated with simulated gastric fluid: pH 1.5, 24 h; for half-life: simulated gi fluid, read-out: half-life (t1/2) in simulated gastric fluid
# Method: (§2) Reactions were terminated by the addition of TFA/H2O ([…], 10% (v/v)). […] The column was equilibrated with TFA/H20, at a flow rate of 1 mL/min. […] The absorbance was monitored at 206 nm using UV detector and peaks were collected manually prior to ESI-MS analysis.
# [5] = Stability in simulated intestinal fluid; assay type: in vitro ADME; settings: 2 μM, 37° C.; for half-life (t1/2) in simulated intestinal fluid / half-life: pH 7.5; for % degradation in 24 h when incubated with simulated intestinal fluid: pH 7.5, 24 h; for half-life: simulated gi fluid, read-out: half-life (t1/2) in simulated intestinal fluid
# Method: as §2
# [6] = Stability in liver microsomes; assay type: in vitro ADME, human; settings: 2 μM, 37° C.; for half-life: human, microsomes, read-out: half-life (t1/2) in liver microsomes
# Method: as §2
# Chain of DPP IV enzyme (P27487 whole entry, species assumed, the tested form may be a part): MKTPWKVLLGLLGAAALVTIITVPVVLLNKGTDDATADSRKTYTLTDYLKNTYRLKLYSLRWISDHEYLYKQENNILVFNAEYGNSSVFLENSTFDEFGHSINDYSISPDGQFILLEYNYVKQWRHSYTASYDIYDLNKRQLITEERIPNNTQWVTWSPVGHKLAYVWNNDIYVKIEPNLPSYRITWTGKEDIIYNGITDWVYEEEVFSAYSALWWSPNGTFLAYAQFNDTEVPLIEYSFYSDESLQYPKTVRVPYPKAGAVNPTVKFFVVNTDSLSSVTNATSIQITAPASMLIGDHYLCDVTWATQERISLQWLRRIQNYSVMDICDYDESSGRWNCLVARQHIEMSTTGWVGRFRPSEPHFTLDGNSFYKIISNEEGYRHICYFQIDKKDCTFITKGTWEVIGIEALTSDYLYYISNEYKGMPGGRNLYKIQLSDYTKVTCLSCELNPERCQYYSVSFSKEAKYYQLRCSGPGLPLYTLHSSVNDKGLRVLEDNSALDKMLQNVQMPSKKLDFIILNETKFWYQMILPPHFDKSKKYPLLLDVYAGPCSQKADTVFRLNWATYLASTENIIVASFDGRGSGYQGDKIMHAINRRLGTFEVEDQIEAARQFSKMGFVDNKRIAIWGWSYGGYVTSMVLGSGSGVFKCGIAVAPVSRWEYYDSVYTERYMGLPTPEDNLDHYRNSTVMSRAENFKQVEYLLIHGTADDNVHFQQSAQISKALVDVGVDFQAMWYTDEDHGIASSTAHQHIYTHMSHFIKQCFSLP
SMILES,% degradation in 24 h when incubated with DPP-IV enzyme [2] [%],half-life [2] [h],% degradation in 24 h when incubated with human plasma [3] [%],half-life [3] [h],half-life (t1/2) in simulated gastric fluid [4],% degradation in 24 h when incubated with simulated gastric fluid [4] [%],half-life (t1/2) in simulated intestinal fluid [5],% degradation in 24 h when incubated with simulated intestinal fluid [5] [%],% degradation in 24 h when incubated with liver microsomes [6] [%],half-life [6] [h],half-life [4] [h],half-life [5] [h],half-life (t1/2) in liver microsomes [6],half-life (t1/2) in human plasma [3],Insulin secretion ([1]; 0.1 nM test compd.) [pg/µg/h],Insulin secretion ([1]; 1 nM test compd.) [pg/µg/h],Insulin secretion ([1]; 10 nM test compd.) [pg/µg/h]
"CCc1cc(OC)ccc1-c1ccc(CC(C)(NC(=O)C(C)(CC(=O)O)NC(=O)[C@H](CO)NC(=O)[C@@H](NC(=O)C(C)(Cc2ccccc2F)NC(=O)[C@@H](NC(=O)CNC(=O)[C@H](CCC(=O)O)NC(=O)[C@H](CO)NC(=O)[C@H](Cc2c[nH]cn2)NC(=O)[C@@H](N)C(C)C)[C@@H](C)O)[C@@H](C)O)C(=O)NC(CCCc2ccccc2)C(N)=O)cc1 (some centres unmarked) [compound 69] (H-VHSEGT[ξαMePhe(2-F)]TS[ξαMeD][ξαMeBip(2'-Et,4'-OMe)][ξhhPhe]-NH2)",76,9,78,8,(8) h,14,(6) h,43,80,1,,,,,16.2 ± 0.13,22.4 ± 0.19,36.2 ± 0.09
"CCc1cc(OC)ccc1-c1ccc(CC(C)(NC(=O)C(C)(CC(=O)O)NC(=O)[C@H](CO)NC(=O)[C@@H](NC(=O)C(C)(Cc2c(F)cccc2F)NC(=O)[C@@H](NC(=O)CNC(=O)[C@H](CCC(N)=O)NC(=O)C(C)(C)NC(=O)[C@H](Cc2c[nH]cn2)NC(=O)[C@@H](N)C(C)C)[C@@H](C)O)[C@@H](C)O)C(=O)NC(CCCc2ccccc2)C(N)=O)cc1 (some centres unmarked) [compound 75] (H-VH[Aib]QGT[ξαMePhe(2,6-F2)]TS[ξαMeD][ξαMeBip(2'-Et,4'-OMe)][ξhhPhe]-NH2)",74,9,75,8,(8) h,12,(6) h,46,83,1,,,,,16.4 ± 0.12,22.7 ± 0.17,36.6 ± 0.05
CCc1cc(OC)ccc1-c1ccc(CC(NC(=O)[C@H](CC(=O)O)NC(=O)[C@H](CO)NC(=O)[C@@H](NC(=O)[C@H](Cc2ccccc2)NC(=O)[C@@H](NC(=O)CNC(=O)[C@H](CCC(N)=O)NC(=O)[C@H](CO)NC(=O)[C@H](Cc2c[nH]cn2)NC(=O)[C@@H](N)C(C)C)[C@@H](C)O)[C@@H](C)O)C(=O)NC(C)(CCCc2ccccc2)C(N)=O)cc1 (some centres unmarked) [compound 81] (H-VHSQGTFTSD[ξBip(2'-Et-4'-OMe)][ξαMe(hhPhe)]-NH2),70,9,71,8,(8) h,14,(6) h,40,78,1,,,,,16.8 ± 0.20,22.7 ± 0.29,36.6 ± 0.31
CCc1cc(OC)ccc1-c1ccc(CC(NC(=O)[C@H](CC(=O)O)NC(=O)[C@H](CO)NC(=O)[C@@H](NC(=O)C(C)(Cc2ccccc2F)NC(=O)[C@@H](NC(=O)CNC(=O)[C@H](CCC(N)=O)NC(=O)[C@H](C)NC(=O)[C@H](Cc2c[nH]cn2)NC(=O)[C@@H](N)C(C)C)[C@@H](C)O)[C@@H](C)O)C(=O)NC(C)(CCCc2ccccc2)C(N)=O)cc1 (some centres unmarked) [compound 92] (H-VHAQGT[ξαMePhe(2-F)]TSD[ξBip(2'-Et-4'-OMe)][ξαMe(hhPhe)]-NH2),00,> 24,00,> 24,,55,,00,84,2,4,> 24,,,16.9 ± 0.22,22.8 ± 0.31,36.7 ± 0.34

# The next lines start with results.
% degradation in 24 h when incubated with DPP-IV enzyme [2] [%],half-life [2] [h],% degradation in 24 h when incubated with human plasma [3] [%],half-life [3] [h],half-life (t1/2) in simulated gastric fluid [4],% degradation in 24 h when incubated with simulated gastric fluid [4] [%],half-life (t1/2) in simulated intestinal fluid [5],% degradation in 24 h when incubated with simulated intestinal fluid [5] [%],% degradation in 24 h when incubated with liver microsomes [6] [%],half-life [6] [h],half-life [4] [h],half-life [5] [h],half-life (t1/2) in liver microsomes [6],half-life (t1/2) in human plasma [3],SMILES,Insulin secretion ([1]; 0.1 nM test compd.) [pg/µg/h],Insulin secretion ([1]; 1 nM test compd.) [pg/µg/h],Insulin secretion ([1]; 10 nM test compd.) [pg/µg/h]
00,> 24,00,> 24,,00,,00,33,,> 24,> 24,(5) h,,CCc1cc(OC)ccc1-c1ccc(CC(NC(=O)C(C)(CC(=O)O)NC(=O)C(C)(CO)NC(=O)[C@@H](NC(=O)[C@H](Cc2ccccc2)NC(=O)[C@@H](NC(=O)CNC(=O)[C@H](CCC(N)=O)NC(=O)[C@H](C)NC(=O)[C@H](Cc2c[nH]cn2)NC(=O)[C@@H](N)C(C)C)[C@@H](C)O)[C@@H](C)O)C(=O)NC(C)(CCCc2ccccc2)C(N)=O)cc1 (some centres unmarked) [compound 108] (H-VHAQGTFT[ξαMeS][ξαMeD][ξBip(2'-Et-4'-OMe)][ξαMe(hhPhe)]-NH2),11.9 ± 0.17,14.2 ± 0.13,27.6 ± 0.16
70,,71,,,100,,100,100,0.5,0.5,0.5,,(9) h,CCc1cc(OC)ccc1-c1ccc(CC(NC(=O)C(C)(CC(=O)O)NC(=O)C(C)(CO)NC(=O)[C@@H](NC(=O)[C@H](Cc2ccccc2)NC(=O)[C@@H](NC(=O)CNC(=O)[C@H](CCC(=O)O)NC(=O)[C@H](C)NC(=O)[C@H](Cc2c[nH]cn2)NC(=O)[C@@H](N)C(C)C)[C@@H](C)O)[C@@H](C)O)C(=O)NC(C)(CCCc2ccccc2)C(N)=O)cc1 (some centres unmarked) [compound 112] (H-VHAEGTFT[ξαMeS][ξαMeD][ξBip(2'-Et-4'-OMe)][ξαMe(hhPhe)]-NH2),12.3 ± 0.33,14.8 ± 0.16,28.1 ± 0.22
86,,70,,,100,,100,100,0.5,0.5,0.5,,(9) h,"CCc1cc(OC)ccc1-c1ccc(CC(C)(NC(=O)[C@H](CC(=O)O)NC(=O)[C@H](CO)NC(=O)[C@@H](NC(=O)[C@H](Cc2ccccc2)NC(=O)[C@@H](NC(=O)CNC(=O)[C@H](CCC(=O)O)NC(=O)C2(C)CCCN2C(=O)[C@H](Cc2c[nH]cn2)NC(=O)[C@@H](N)C(C)C)[C@@H](C)O)[C@@H](C)O)C(=O)NC(C)(CCCc2ccccc2)C(N)=O)cc1 (some centres unmarked) [compound 140] (H-VH[ξαMeP]EGTFTSD[ξαMeBip(2'-Et,4'-OMe)][ξαMe(hhPhe)]-NH2)",16.6 ± 0.41,22.9 ± 0.32,36.7 ± 0.11
